How the values were obtained:
[1] = biological target: T1, sex hormone binding globulin (SHBG) (Homo sapiens, UniProt P04278); assay: Binding of 5′-MP-^125IUdR-3′-DHT to sex hormone binding globulin (charcoal-dextran, size-exclusion HPLC); details: FIG. 3
T1 sequence (P04278 30-402): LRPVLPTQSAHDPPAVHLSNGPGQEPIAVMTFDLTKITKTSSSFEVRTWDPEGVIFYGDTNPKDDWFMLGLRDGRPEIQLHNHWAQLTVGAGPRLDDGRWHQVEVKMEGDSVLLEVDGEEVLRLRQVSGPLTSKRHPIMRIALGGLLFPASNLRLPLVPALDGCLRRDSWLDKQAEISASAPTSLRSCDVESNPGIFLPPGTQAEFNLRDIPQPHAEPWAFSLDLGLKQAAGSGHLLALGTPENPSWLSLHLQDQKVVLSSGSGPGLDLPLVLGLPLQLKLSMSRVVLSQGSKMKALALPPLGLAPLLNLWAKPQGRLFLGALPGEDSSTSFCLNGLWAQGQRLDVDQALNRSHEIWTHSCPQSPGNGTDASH
Description: The tubes were then vortexed for about 30 seconds and incubated for 10 minutes in a water bath at 37° C. The samples were then incubated at 0–4° C. for 3 hours. 0.1 mL aliquots were removed from the samples and counted in a gamma counter. To each tube, 0.4 mL of ice-cold charcoal-dextran solution was added and the tubes were incubated on ice for 15 minutes. The samples were then centrifuged at 4° C. for 20 minutes at 1,000 rpm. 0.5 ml aliquots were taken for gamma-counting and the residue was also counted. Selected samples were analyzed by size-exclusion HPLC (tandem TSK2000 and TSK3000 size exclusion columns (TosoHaas; Montgomeryville, Pa.) with a guard column using PBS, pH7.2 as the eluant).

OVCAR-3 cells [2] = assay: Binding of ^125IUdR-DHT to OVCAR-3 cells in vitro (Scatchard plot, with/without excess cold DHT)
Description: To generate a Scatchard plot for the binding of ^125IUdR-DHT to OVCAR-3 cells, OVCAR-3 cells were thawed from a stock or freshly harvested by a lavage of the peritoneal cavity of athymic mice bearing intraperitoneal ascites OVCAR-3 tumors. The cells were twice washed with full media (RPMI 1640 medium with 2 mM L-glutamine adjusted to contain 1.5 g/L sodium bicarbonate, 4.5 g/L glucose, 10 mM HEPES, and 1.0 mM sodium pyruvate and supplemented with 0.01 mg/ml bovine insulin, 80%; fetal bovine serum, 20%). The cells were spun at 450 rpm for 10 minutes to collect a cell pellet and were then resuspended in full media to achieve approximately 5×10^6 cells/mL. The cells were counted and their viability was determined by Trypan Blue staining. “Cold” dihydrotestosterone (DHT) was dissolved in 95% ethanol to create a stock solution of 5 μg/mL. Similarly, 95% ethanol was added to ^125IUdR-DHT to produce 250,000 cpm/100 μL.
The tubes were capped and gently vortexed. The “total applied” counts were then determined in a gamma counter. […] A known volume of the supernatant from the centrifugation was transfered to new plastic tubes and counted in a gamma counter to determine the “free” counts. The cell pellet with the remainder of the supernatant was then counted in the gamma counter. “Bound” counts were then determined by subtracting counts associated with the supernatant from the remaining counts.

OVCAR-3 cells [3] = assay: Stability of ^125IUdR-DHT in growth medium in the presence or absence of OVCAR-3 cells (TLC); type: in vitro ADME
Description: OVCAR-3 cells in full growth medium (RPMI 1640 medium with 2 mM L-glutamine adjusted to contain 1.5 g/L sodium bicarbonate, 4.5 g/L glucose, 10 mM HEPES, and 1.0 mM sodium pyruvate and supplemented with 0.01 mg/ml bovine insulin, 80%; fetal bovine serum, 20%) at 1×10^6 cells per flask were plated onto three Petri dishes and allowed to attach for 24 hours. As a control, one dish without cells was subjected to the same treatments. After 24 hours, the cells were trypsinized from one dish to determine cell number and viability. The media was then aspirated from the remaining dishes, including the control, and replaced with 1 mL of fresh media. 0.1 mCi of ^125IUdR-DHT in 0.10 mL of ethanol was added to all of the dishes. The dishes were incubated at 37° C. At 0, 5, 15, 30, 60, 120, 180, and 240 minutes, 10 μL of media was removed from each of the dishes of which 2 μL was added to a silica gel TLC plate. Additionally, 2 μL was added to glass gamma counter tubes as standards. The TLC plates were run with a 3:1 mixture of ethyl acetate and hexane (v/v). When the solvent front approached the end of the plate, the plate was removed from the solvent, dried, and cut into strips. The standards and the strips were then counted. The percent recovered ^125IUdR-DHT was calculated as a ratio of the intact ^125IUdR-DHT at a given timepoint divided by the intact ^125IUdR-DHT at the 0 minute timepoint (see FIG. 2A). Similar calculations were used to determine the kinetics of the appearance of ^125IUdR in the medium, which was determined to occur at a rate of 8.5%/hour (FIG. 2B). This rate is in comparison to the disappearance of ^125IUdR-DHT from the media at a rate of 16%/hour. […] The inclusion of a negatively-charged monophosphate assists in the retention of these compounds in the cell.
This allows at least a partial retention of the negatively charged succinate inside the cell where the next hydrolytic step frees ^125IUdR to be taken up by DNA.

[4] = system: intraperitoneal OVCAR-3 tumors; assay: Efficacy against intraperitoneal OVCAR-3 tumors after 6 fractionated doses; type: in vivo, athymic mice; details: 0.1 mCi/dose/mouse
Excerpt: (§1) With regard to ^125IUdR-3′-DHT, the biodistribution of the reagent (0.001–0.010 mCi/mouse; […]) in athymic mice bearing AR-expressing OVCAR-3 tumors is seen in Table 3. Additionally, the efficacy of the reagent against the intraperitoneal OVCAR-3 tumors after 6 fractionated doses (0.1 mCi/dose/mouse; […]) is seen in Table 4.

[5] = Biodistribution in athymic mice bearing AR-expressing OVCAR-3 tumors; type: in vivo
Excerpt: as §1

[6] = Hydrophobicity / aqueous solubility of the conjugates (descriptive); type: physicochemical
[7] = OVCAR-3 cells, full growth medium, 37° C.

CC12CCC(=O)CC1CCC1C2CCC2(C)C(OC(=O)CCC(=O)OC3CC(n4cc([125I])c(=O)[nH]c4=O)OC3COP(=O)(O)O)CCC12 (stereo not shown) [5′-MP-^125IUdR-3′-DHT, 5′-monophosphate-^125IUdR-3′-succinyl-DHT]
binding to SHBG [1]: specifically bound
competition of SHBG binding by “cold” DHT [1]: competed away

CC12CCC(=O)CC1CCC1C2CCC2(C)C(OC(=O)CCC(=O)OC3CC(n4cc([125I])c(=O)[nH]c4=O)OC3CO)CCC12 (stereo not shown) [^125IUdR-DHT, ^125IUdR-3′-succinyl-DHT]
binding to OVCAR-3 cells (Scatchard) (OVCAR-3 cells [2]; 5 × 10^6 cells, 0–4° C., 14–16 hours): single type of binding sites with a high affinity
competition by excess DHT for binding (OVCAR-3 cells [2]; excess “cold” DHT): due to the DHT portion of the drug
rate of appearance of ^125IUdR in the medium (OVCAR-3 cells [3]; [7]): 8.5 %/hour
rate of disappearance of ^125IUdR-DHT from the media (OVCAR-3 cells [3]; [7]): 16 %/hour
emergence of “free” ^125IUdR in the growth medium (OVCAR-3 cells [3]; presence or absence of OVCAR-3 cells): requires interaction of the drugs with specific cells
median tumor size [4]: 0.244 g
range (tumor size) [4]: 0.012 to 0.781 g
mean tumor burden ([4]; average (n = 10) and standard deviation): 0.304 ± 0.320 g
Percent injected dose per gram tissue ([5]; Blood, 1.5 h, average of n = 10): 29.61 Percent injected dose per gram tissue
Percent injected dose per gram tissue ([5]; Blood, 24 h, average of n = 10): 0.25 Percent injected dose per gram tissue
Percent injected dose per gram tissue ([5]; Blood, 48 h, average of n = 10): 0.30 Percent injected dose per gram tissue
Percent injected dose per gram tissue ([5]; Blood, 72 h, average of n = 10): 0.17 Percent injected dose per gram tissue
Percent injected dose per gram tissue ([5]; Brain, 1.5 h): 1.91 Percent injected dose per gram tissue
Percent injected dose per gram tissue ([5]; Brain, 24 h): 0.03 Percent injected dose per gram tissue
Percent injected dose per gram tissue ([5]; Brain, 48 h): 0.05 Percent injected dose per gram tissue
Percent injected dose per gram tissue ([5]; Brain, 72 h): 0.04 Percent injected dose per gram tissue
Percent injected dose per gram tissue ([5]; Kidney, 1.5 h): 17.67 Percent injected dose per gram tissue
Percent injected dose per gram tissue ([5]; Kidney, 24 h): 0.20 Percent injected dose per gram tissue
Percent injected dose per gram tissue ([5]; Kidney, 48 h): 0.18 Percent injected dose per gram tissue
Percent injected dose per gram tissue ([5]; Kidney, 72 h): 0.22 Percent injected dose per gram tissue
Percent injected dose per gram tissue ([5]; Liver, 1.5 h): 11.07 Percent injected dose per gram tissue
Percent injected dose per gram tissue ([5]; Liver, 24 h): 0.24 Percent injected dose per gram tissue
Percent injected dose per gram tissue ([5]; Liver, 48 h): 0.32 Percent injected dose per gram tissue
Percent injected dose per gram tissue ([5]; Liver, 72 h): 0.33 Percent injected dose per gram tissue
Percent injected dose per gram tissue ([5]; OVCAR-3 tumor (IP), 1.5 h): 20.70 Percent injected dose per gram tissue
Percent injected dose per gram tissue ([5]; OVCAR-3 tumor (IP), 24 h): 5.66 Percent injected dose per gram tissue
Percent injected dose per gram tissue ([5]; OVCAR-3 tumor (IP), 48 h): 5.41 Percent injected dose per gram tissue
Percent injected dose per gram tissue ([5]; OVCAR-3 tumor (IP), 72 h): 3.54 Percent injected dose per gram tissue
Percent injected dose per gram tissue ([5]; Spleen, 1.5 h): 15.60 Percent injected dose per gram tissue
Percent injected dose per gram tissue ([5]; Spleen, 24 h): 0.59 Percent injected dose per gram tissue
Percent injected dose per gram tissue ([5]; Spleen, 48 h): 0.44 Percent injected dose per gram tissue
Percent injected dose per gram tissue ([5]; Spleen, 72 h): 0.59 Percent injected dose per gram tissue
Percent injected dose per gram tissue ([5]; Uterus, 1.5 h): 11.43 Percent injected dose per gram tissue
Percent injected dose per gram tissue ([5]; Uterus, 24 h): 0.54 Percent injected dose per gram tissue
Percent injected dose per gram tissue ([5]; Uterus, 48 h): 0.66 Percent injected dose per gram tissue
Percent injected dose per gram tissue ([5]; Uterus, 72 h): 0.97 Percent injected dose per gram tissue
Percent injected dose per gram tissue ([5]; solid OVCAR-3 (approximately 2 mice per group), 1.5 h): 12.94 Percent injected dose per gram tissue
Percent injected dose per gram tissue ([5]; solid OVCAR-3 (approximately 2 mice per group), 24 h): 0.67 Percent injected dose per gram tissue
Percent injected dose per gram tissue ([5]; solid OVCAR-3 (approximately 2 mice per group), 48 h): 0.28 Percent injected dose per gram tissue
Percent injected dose per gram tissue ([5]; solid OVCAR-3 (approximately 2 mice per group), 72 h): 0.24 Percent injected dose per gram tissue

CC12CCC(=O)CC1CCC1C2CCC2(C)C(OP(=O)(OCC3OC(n4cc([125I])c(=O)[nH]c4=O)CC3O)OC3CCC4C5CCC6CC(=O)CCC6(C)C5CCC34C)CCC12 (stereo not shown) [Conjugate 5, 5′-[^125I]iodo-2′-deoxy-5′-monphosphate-O-(bis-dihydrotestosterone)]
hydrophilicity / hydrophobicity relative to the other conjugates [6]: most hydrophobic

From patent publication US7220730B2, “Cancer specific radiolabeled conjugates regulated by the cell cycle for the treatment and diagnosis of cancer” (Board of Regents of the University of Nebraska, priority 2003, dated 2007)
